# Data reported in US20180371384A1, “METHOD FOR PRODUCING ROOTING-SUPPRESSED MALT” (SUNTORY HOLDINGS LIMITED, priority 2015, published 2018).
# Experiments:
# [1] = test system: barley (Sukai Golden); experiment: Amount of rooting, yield and length of acrospires (Test Example 3); type: in vivo; conditions: for Amount of Rooting Based on 100 g of Barley: germination 5 days at 20° C.
# Text: Here, the rooting amount used herein means total weight of a root thrusting out of the surface of each grain in malts which are malted from 100 g of raw material barley.
# Crops of Sukai Golden harvested in the year 2013 (99% of germination ratio) were used as domestic (Japan) two-row malting barley cultivar. and steeping conditions were the same as those in Test Example 1. A standard in which steeping of barley was earned out in pure water (pH 7.0) was defined as “normal steeping bailey (Comparative Example 2),” and a standard in which steeping of barley was earned out in an aqueous solution having a pH listed in Table 3 with phosphoric acid was defined as “acidic steeping barley (Example 2),” and three batches of malts each of which was obtained by going through the steps of steeping, germination and kilning were prepared. For each of batches of the normal malts and the acidic steeping barley obtained, the weight of rooting was obtained, and an average length of acrospires and an yield were obtained in the same manner as Test Example 1 to calculate an average thereof. In addition, each of the contents of an acrid component and β-glucan was measured as follows, and the contents of enzymes were measured in the same manner as Test Example 2. […] In addition, the germination was carried out for 5 days while keeping a temperature at 20° C. In addition, an yield was calculated as X/100 (%) from X g of a weight of roots-removed malts obtained from 100 g of barley.
# [2] = test system: acrid component (hordatine glycoside); experiment: Measurement of acrid components in malts (LCMS); set-up: species or system barley
# Text: In addition, the content of the acrid component in the acidic steeping malts obtained is, for example, lowered in a case of a pH of from 1.8 to 2.0 of the acidic steeping water, and the content is preferably 90% by weight or less, more preferably 80% by weight or less, even more preferably 75% by weight or less, even more preferably 70% by weight or less, even more preferably 60% by weight or less, and even more preferably 55% by weight or less, when defining the content of the acrid component in normal malts as 100% by weight. Here, the acrid component as used herein refers to a hordatine glycoside, and the content can be measured in accordance with a method set forth in the following Examples.
# The amount 5.0 g of malts which are previously cryo-milled with ShakeMaster manufactured by Medical Bio Science are suspended in 40 mL of hot water at 65° C., and extraction is carried out at 65° C. for 1 hour. Thereafter, the extracts are subjected to centrifugation at 5,000 rpm for 20 minutes, and 10 mL of the supernatant is applied to PLS-2 solid phase column of GL Science (activated with methanol or the like), the column is washed with water, and thereafter fractions eluted with 20% ethanol are collected. The eluents are concentrated with SpeedVac, a concentrate is then freeze-dried, the freeze-dried product is dissolved in water, and the solution is subjected to LCMS under the following conditions, to obtain area of peak thereof.
# Apparatus; LCMS-2020 manufactured by Shimadzu Corporation
# Column: Polar column (Develosil-C30-UG-5. φ2×150 mm)
# Mobile phase: Gradient of water containing 0.1% formic acid/acetocetonitrile[sic] • 0 to 62.5 minutes (2→10% acetonitrile) • 62.5 to 72.5 minutes (10% acetonitrile)
# Column temperature: 40° C.
# [3] = test system: α-amylase; experiment: Measurement of α-amylase level in malts; set-up: species or system barley
# Description: One gram of malts which are previously cryo-milled with ShakeMaster manufactured by Medical Bio Science is suspended in 2 mL of a buffer suitable for the measurement of activities of various enzymes, extraction is carried out for 60 minutes in iced water, and the extracts are then subjected to ultracentrifugation treatment (1,000 g×20 minutes), to provide the supernatant as an enzyme solution.
# A crop a amylase kit from BIOCON is used. A blocked p-nitrophenyl maltoheptaoside (BPNPG7) is used as a substrate, enzyme extracts from malts are added thereto, and the mixture is reacted at 40° C. for 20 minutes. The reaction is stopped with Trizma base, and p-nitrophenyl maltosaccharide produced is degraded with glucoamylase, α-glucosidase. P-nitrophenol produced is subjected to phenolate color development, and the absorbance is measured at 410 nm (n=5).
# [4] = test system: β-amylase; experiment: Measurement of β-amylase level in malts; set-up: species or system barley
# Description: One gram of […] previously cryo-milled with ShakeMaster manufactured by Medical Bio Science is suspended in 2 mL of a buffer suitable for the measurement of activities of various enzymes, extraction is carried out for 60 minutes in iced water, and the extracts are then subjected to ultracentrifugation treatment (1,000 g×20 minutes), to provide the supernatant as an enzyme solution. Enzyme extracts from […] to Betamyl (p-nitrophenyl maltotriose; […]
# [5] = test system: endoprotease; experiment: Measurement of endoprotease level in malts; set-up: species or system barley
# Description: One gram of […] previously cryo-milled with ShakeMaster manufactured by Medical Bio Science is suspended in 2 mL of a buffer suitable for the measurement of activities of various enzymes, extraction is carried out for 60 minutes in iced water, and the extracts are then subjected to ultracentrifugation treatment (1,000 g×20 minutes), to provide the supernatant as an enzyme solution. Azo-stained casein is used as a substrate, enzyme extracts from […] thereto, and the mixture is reacted at 40° C. for 30 minutes. The reaction is stopped with a TCA solution, the solution is allowed to stand for 5 minutes, the mixture is then subjected to centrifugation to precipitate an undegraded substrate, and the supernatant is subjected to colorimetry at 366 mn (n=5). Here, an enzyme activity is defined such that an enzyme concentration of an enzyme liquid which is added to an enzyme reaction liquid to increase the absorbance by 1.0 is 1 U/mL. […] A pH of the solution is then adjusted to 8.5 with a diluted sulfuric acid, and a volume is tilled up to 100 mL.
smiles,measurement,setting,value
"O=P(O)(O)O [Phosphoric Acid, phosphoric acid]",Length of Acrospires,"[1]; Initial pH 1.5, 223 mM",0.38
same,Amount of Rooting Based on 100 g of Barley,"[1]; Initial pH 1.5, 223 mM",0.03 g
same,Length of Acrospires,"[1]; Initial pH 1.6, 176 mM",0.38
same,Amount of Rooting Based on 100 g of Barley,"[1]; Initial pH 1.6, 176 mM",0.03 g
same,Length of Acrospires,"[1]; Initial pH 1.8, 82 mM",0.38
same,Amount of Rooting Based on 100 g of Barley,"[1]; Initial pH 1.8, 82 mM",0.05 g
same,Length of Acrospires,"[1]; Initial pH 2.0, 29 mM",0.62
same,Amount of Rooting Based on 100 g of Barley,"[1]; Initial pH 2.0, 29 mM",0.30 g
same,Length of Acrospires,"[1]; Initial pH 2.2, 18 mM",0.63
same,Amount of Rooting Based on 100 g of Barley,"[1]; Initial pH 2.2, 18 mM",1.51 g
same,Length of Acrospires,"[1]; Initial pH 2.4, 7 mM",0.63
same,Amount of Rooting Based on 100 g of Barley,"[1]; Initial pH 2.4, 7 mM",2.90 g
same,"Acrid Component (Based on Normal Steeping Barley, % by weight)","[2]; Initial pH 1.5, 223 mM",259 % by weight
same,"Acrid Component (Based on Normal Steeping Barley, % by weight)","[2]; Initial pH 1.6, 176 mM",104 % by weight
same,"Acrid Component (Based on Normal Steeping Barley, % by weight)","[2]; Initial pH 1.8, 82 mM",53 % by weight
same,"Acrid Component (Based on Normal Steeping Barley, % by weight)","[2]; Initial pH 2.0, 29 mM",80 % by weight
same,"Acrid Component (Based on Normal Steeping Barley, % by weight)","[2]; Initial pH 2.2, 18 mM",116 % by weight
same,"Acrid Component (Based on Normal Steeping Barley, % by weight)","[2]; Initial pH 2.4, 7 mM",120 % by weight
same,"α-Amylase (Based on Normal Steeping Barley, %)","[3]; Initial pH 1.5, 223 mM",21%
same,"α-Amylase (Based on Normal Steeping Barley, %)","[3]; Initial pH 1.6, 176 mM",25%
same,"α-Amylase (Based on Normal Steeping Barley, %)","[3]; Initial pH 1.8, 82 mM",39%
same,"α-Amylase (Based on Normal Steeping Barley, %)","[3]; Initial pH 2.0, 29 mM",90%
same,"α-Amylase (Based on Normal Steeping Barley, %)","[3]; Initial pH 2.2, 18 mM",90%
same,"α-Amylase (Based on Normal Steeping Barley, %)","[3]; Initial pH 2.4, 7 mM",91%
same,"β-Amylase (Based on Normal Steeping Barley, %)","[4]; Initial pH 1.5, 223 mM",187%
same,"β-Amylase (Based on Normal Steeping Barley, %)","[4]; Initial pH 1.6, 176 mM",128%
same,"β-Amylase (Based on Normal Steeping Barley, %)","[4]; Initial pH 1.8, 82 mM",557%
same,"β-Amylase (Based on Normal Steeping Barley, %)","[4]; Initial pH 2.0, 29 mM",400%
same,"β-Amylase (Based on Normal Steeping Barley, %)","[4]; Initial pH 2.2, 18 mM",370%
same,"β-Amylase (Based on Normal Steeping Barley, %)","[4]; Initial pH 2.4, 7 mM",221%
same,"Endoprotease (Based on Normal Steeping Barley, %)","[5]; Initial pH 1.5, 223 mM",16%
same,"Endoprotease (Based on Normal Steeping Barley, %)","[5]; Initial pH 1.6, 176 mM",20%
same,"Endoprotease (Based on Normal Steeping Barley, %)","[5]; Initial pH 1.8, 82 mM",45%
same,"Endoprotease (Based on Normal Steeping Barley, %)","[5]; Initial pH 2.0, 29 mM",65%
same,"Endoprotease (Based on Normal Steeping Barley, %)","[5]; Initial pH 2.2, 18 mM",68%
same,"Endoprotease (Based on Normal Steeping Barley, %)","[5]; Initial pH 2.4, 7 mM",35%
